Where a name gives a salt, the structure may show the parent alone.
Each molecule was assayed against T1, SOS1 (Homo sapiens, UniProt Q07889) (assay: biochemical).
T1 sequence (Q07889 1-1333): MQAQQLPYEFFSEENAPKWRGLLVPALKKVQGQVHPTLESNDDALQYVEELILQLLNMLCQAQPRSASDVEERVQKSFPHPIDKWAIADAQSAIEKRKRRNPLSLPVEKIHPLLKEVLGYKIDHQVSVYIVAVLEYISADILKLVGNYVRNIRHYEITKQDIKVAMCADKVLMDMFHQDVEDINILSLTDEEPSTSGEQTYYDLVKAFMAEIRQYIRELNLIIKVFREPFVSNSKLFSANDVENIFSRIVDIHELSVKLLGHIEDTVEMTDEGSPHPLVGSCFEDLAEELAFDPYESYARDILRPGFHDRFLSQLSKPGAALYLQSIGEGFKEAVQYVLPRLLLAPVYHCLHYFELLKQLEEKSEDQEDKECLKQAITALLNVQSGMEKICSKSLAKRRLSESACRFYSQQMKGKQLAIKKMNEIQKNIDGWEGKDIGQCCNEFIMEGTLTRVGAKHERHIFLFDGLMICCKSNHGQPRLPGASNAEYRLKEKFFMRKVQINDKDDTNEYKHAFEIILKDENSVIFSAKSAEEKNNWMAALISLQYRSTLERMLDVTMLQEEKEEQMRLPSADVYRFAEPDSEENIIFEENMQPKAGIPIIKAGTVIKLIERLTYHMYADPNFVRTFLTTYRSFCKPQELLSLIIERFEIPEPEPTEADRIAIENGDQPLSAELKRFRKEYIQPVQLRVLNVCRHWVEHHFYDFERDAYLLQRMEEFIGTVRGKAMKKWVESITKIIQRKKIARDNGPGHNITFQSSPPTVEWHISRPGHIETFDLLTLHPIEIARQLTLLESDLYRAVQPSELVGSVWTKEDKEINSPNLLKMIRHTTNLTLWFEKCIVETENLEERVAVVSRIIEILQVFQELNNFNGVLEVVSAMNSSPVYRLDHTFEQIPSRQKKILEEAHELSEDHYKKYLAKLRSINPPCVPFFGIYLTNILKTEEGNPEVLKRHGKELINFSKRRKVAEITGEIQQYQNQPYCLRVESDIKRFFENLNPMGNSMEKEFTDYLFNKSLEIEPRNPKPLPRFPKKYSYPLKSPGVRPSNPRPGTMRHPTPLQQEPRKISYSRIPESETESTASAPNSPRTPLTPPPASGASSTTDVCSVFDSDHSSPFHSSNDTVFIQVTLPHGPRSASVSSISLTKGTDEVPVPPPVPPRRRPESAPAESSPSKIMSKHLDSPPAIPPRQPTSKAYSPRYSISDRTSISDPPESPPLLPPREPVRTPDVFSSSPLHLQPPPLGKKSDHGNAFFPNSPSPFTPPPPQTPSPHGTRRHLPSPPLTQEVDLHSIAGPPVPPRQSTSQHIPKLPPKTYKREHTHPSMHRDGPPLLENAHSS

In order of falling IC50:
1. Cc1c(C#N)cccc1[C@@H](C)Nc1nnc(N2CCS(=O)(=O)CC2)c2cc(=O)n(C3(C)CC3)cc12 [Example 72, (R)-3-(1-((1-(1,1-dioxidothiomorpholino)-6-(1-methylcyclopropyl)-7-oxo-6,7-dihydropyrido[3,4-d]pyridazin-4-yl)amino)ethyl)-2-methylbenzonitrile]  50.4 nM
2. Cc1c([C@@H](C)Nc2nnc(N3CC(F)(F)C3)c3cc(=O)n(C4CC4)cc23)cccc1C(F)(F)F [Example 54, (R)-6-cyclopropyl-1-(3,3-difluoroazetidin-1-yl)-4-((1-(2-methyl-3-(trifluoromethyl)phenyl)ethyl)amino)pyr ido[3,4-d]pyridazin-7(6H)-one]  50.3 nM
3. Cc1c(C#N)cccc1[C@@H](C)Nc1nnc(N2CCS(=O)(=O)CC2)c2cc(=O)n(C3CC3)cc12 [Example 44, (R)-3-(1-((6-cyclopropyl-1-(1,1-dioxidothiomorpholino)-7-oxo-6,7-dihydropyrido[3,4-d]pyridazin-4-yl)amino)ethyl)-2-methylbenzonitrile]  44.2 nM
4. Cc1c([C@@H](C)Nc2nnc(N3CCSC3)c3cc(=O)n(C4CC4)cc23)cccc1C(F)(F)F [Example 57, (R)-6-cyclopropyl-4-((1-(2-methyl-3-(trifluoromethyl)phenyl)ethyl)amino)-1-(thiazolidin-3-yl)pyrido[3,4-d]pyridazin-7(6H)-one]  25.6 nM
5. C[C@@H](Nc1nnc(-n2cccn2)c2cc(=O)n(C3(C)CC3)cc12)c1cccc(C(F)F)c1F [Example 33, (R)-4-((1-(3-(difluoromethyl)-2-fluorophenyl)ethyl)amino)-6-(1-methylcyclopropyl)-1-(1H-pyrazol-1-yl)pyrido[3,4-d]pyridazin-7(6H)-one]  22.5 nM
6. C[C@@H](Nc1nnc(N2CCC(F)(F)C2)c2cc(=O)n(C3(C)CC3)cc12)c1cccc(C(F)F)c1F [Example 26, (R)-4-((1-(3-(difluoromethyl)-2-fluorophenyl)ethyl)amino)-1-(3,3-difluoropyrrolidin-1-yl)-6-(1-methylcyclopropyl) pyrido[3,4-d]pyridazin-7(6H)-one]  18.8 nM
7. Cc1c(C#N)cccc1[C@@H](C)Nc1nnc(N(C)C)c2cc(=O)n(C3(C)CC3)cc12 [Example 84, (R)-3-(1-((1-(dimethylamino)-6-(1-methylcyclopropyl)-7-oxo-6,7-dihydropyrido[3,4-d]pyridazin-4-yl)amino)ethyl)-2-methylbenzonitrile]  18.7 nM
8. C[C@@H](Nc1nnc(N2CC3CCC(C2)O3)c2cc(=O)n(C3(C)CC3)cc12)c1cccc(C(F)F)c1F [Example 198, 1-(8-oxa-3-azabicyclo[3.2.1]octan-3-yl)-4-(((R)-1-(3-(difluoromethyl)-2-fluorophenyl)ethyl)amino)-6-(1-methylcyclopropyl) pyrido[3,4-d]pyridazin-7(6H)-one]  13.6 nM
9. Cc1c([C@@H](C)Nc2nnc(N(C)C)c3cc(=O)n(C4CC4)cc23)cccc1C(F)(F)F [Example 51, (R)-6-cyclopropyl-1-(dimethylamino)-4-((1-(2-methyl-3-(trifluoromethyl)phenyl)ethyl)amino)pyr ido[3,4-d]pyridazin-7(6H)-one]  11.8 nM
10. Cc1c(C#N)cccc1[C@@H](C)Nc1nnc(N2CCC[C@H]2C)c2cc(=O)n(C3(C)CC3)cc12 [Example 85, 2-methyl-3-((R)-1-((6-(1-methylcyclopropyl)-1-((R)-2-methylpyrrolidin-1-yl)-7-oxo-6,7-dihydropyrido[3,4-d]pyridazin-4-yl)amino)ethyl)benzonitrile]  11.7 nM
11. Cc1cc(N)cc([C@@H](C)Nc2nnc(N3CCN(C4CC4)CC3)c3cc(=O)n(C4CC4)cc23)c1F [Example 143, (R)-4-((1-(5-amino-2-fluoro-3-methylphenyl)ethyl)amino)-6-cyclopropyl-1-(4-cyclopropylpiperazin-1-yl)pyrido[3,4-d]pyridazin-7(6H)-one]  11.5 nM
12. Cc1c(C#N)cccc1[C@@H](C)Nc1nnc(N2CC3CC3C2)c2cc(=O)n(C3(C)CC3)cc12 (stereo partly drawn) [Example 46, 3-((1R)-1-((1-(3-azabicyclo[3.1.0]hexan-3-yl)-6-(1-methylcyclopropyl)-7-oxo-6,7-dihydropyrido[3,4-d]pyridazin-4-yl)amino)ethyl)-2-methylbenzonitrile]  9.3 nM
13. CCn1cc2c(N[C@H](C)c3cccc(C(F)F)c3F)nnc(N3CCN(C(C)C)CC3)c2cc1=O [Example 118, (R)-4-((1-(3-(difluoromethyl)-2-fluorophenyl)ethyl)amino)-6-ethyl-1-(4-isopropylpiperazin-1-yl)pyrido[3,4-d]pyridazin-7(6H)-one]  8.4 nM
14. Cc1c([C@@H](C)Nc2nnc(N3CCN(C4CCC4)CC3)c3cc(=O)n(C4(C)CC4)cc23)cccc1C(F)(F)F [Example 94, (R)-1-(4-cyclobutylpiperazin-1-yl)-4-((1-(2-methyl-3-(trifluoromethyl)phenyl)ethyl)amino)-6-(1-methylcyclopropyl) pyrido[3,4-d]pyridazin-7(6H)-one]  7.3 nM
15. C[C@@H](Nc1nnc(N2CCC[C@H](CO)C2)c2cc(=O)n(C3(C)CC3)cc12)c1cccc2c1CCC2(F)F [Example 207, 4-(((R)-1-(1,1-difluoro-2,3-dihydro-1H-inden-4-yl)ethyl)amino)-1-((S)-3-(hydroxymethyl)piperidin-1-yl)-6-(1-methylcyclopropyl) pyrido[3,4-d]pyridazin-7(6H)-one]  7.3 nM
16. CCN1CCN(c2nnc(N[C@H](C)c3cc(N)cc(C)c3F)c3cn(C4CC4)c(=O)cc23)CC1 [Example 144, (R)-4-((1-(5-amino-2-fluoro-3-methylphenyl)ethyl)amino)-6-cyclopropyl-1-(4-ethylpiperazin-1-yl)pyrido[3,4-d]pyridazin-7(6H)-one formate]  6.7 nM
17. CCn1cc2c(N[C@H](C)c3cccc(C(F)F)c3F)nnc(N3CCN(C)CC3)c2cc1=O [Example 116, (R)-4-((1-(3-(difluoromethyl)-2-fluorophenyl)ethyl)amino)-6-ethyl-1-(4-methylpiperazin-1-yl)pyrido[3,4-d]pyridazin-7(6H)-one]  6.6 nM
18. Cc1cc(N)cc([C@@H](C)Nc2nnc(N3CCN(C4CCCC4)CC3)c3cc(=O)n(C4CC4)cc23)c1F [Example 148, (R)-4-((1-(5-amino-2-fluoro-3-methylphenyl)ethyl)amino)-1-(4-cyclopentylpiperazin-1-yl)-6-cyclopropylpyrido[3 ,4-d]pyridazin-7(6H)-one]  6.5 nM
19. C[C@@H](Nc1nnc(N2CC[C@H](CO)C2)c2cc(=O)n(C3(C)CC3)cc12)c1cccc(C(F)(F)F)c1 [Example 179, 1-((S)-3-(hydroxymethyl)pyrrolidin-1-yl)-6-(1-methylcyclopropyl)-4-(((R)-1-(3-(trifluoromethyl)phenyl)ethyl)amino)pyr ido[3,4-d]pyridazin-7(6H)-one formate]  6.4 nM
20. C[C@@H](Nc1nnc(N2CCC[C@@H]2CO)c2cc(=O)n(C3(C)CC3)cc12)c1cccc(C(F)F)c1F [Example 139, 4-(((R)-1-(3-(difluoromethyl)-2-fluorophenyl)ethyl)amino)-1-((R)-2-(hydroxymethyl)pyrrolidin-1-yl)-6-(1-methylcyclopropyl) pyrido[3,4-d]pyridazin-7(6H)-one]  6.2 nM
21. C[C@@H](Nc1nnc(NC(C2CC2)C2CC2)c2cc(=O)n(C3(C)CC3)cc12)c1cccc(C(F)F)c1F [Example 129, (R)-1-((dicyclopropylmethyl)amino)-4-((1-(3-(difluoromethyl)-2-fluorophenyl)ethyl)amino)-6-(1-methylcyclopropyl) pyrido[3,4-d]pyridazin-7(6H)-one]  6.1 nM
22. Cc1c(C(F)F)cccc1[C@@H](C)Nc1nnc(N2CCN(C(C)C)CC2)c2cc(=O)n(C3CC3)cc12 [Example 211, (R)-6-cyclopropyl-4-((1-(3-(difluoromethyl)-2-methylphenyl)ethyl)amino)-1-(4-isopropylpiperazin-1-yl)pyrido[3,4-d]pyridazin-7(6H)-one]  5.2 nM
23. C[C@@H](Nc1nnc(N2CCN(C)CC2)c2cc(=O)n(C3(C)CC3)cc12)c1cccc(C(F)(F)CO)c1 [Example 226, (R)-4-((1-(3-(1,1-difluoro-2-hydroxyethyl)phenyl)ethyl)amino)-6-(1-methylcyclopropyl)-1-(4-methylpiperazin-1-yl)pyrido[3,4-d]pyridazin-7(6H)-one]  4.3 nM

Source: patent publication EP4722213A1, “NITROGEN-CONTAINING FUNCTIONAL GROUP-SUBSTITUTED PYRIDAZINOPYRIDONE DERIVATIVE AND USE THEREOF” (Sichuan Huiyu Pharmaceutical Co., Ltd., priority 2023, dated 2024)
